Measured values as given in PMC8587043, “An Investigation into the Interaction between Double Hydroxide-Based Antioxidant Benzophenone Derivatives and Cyclooxygenase 2” (Molecules, 2021).

Columns and labels:
EA.hy926 cells = assay: Protective effect against H2O2-induced oxidative damage, MTT assay; assay type: cell-based, human; settings: for EC50: Homo sapiens, EA.hy 926, 4 h, protection against H2O2-induced damage (400 µmol·L^−1, 4 h), n = 3, mean ± SD; for protection rate compared with positive controls (fenofibrate and quereetin): statistical comparison
Description: Hydrogen peroxide (H2O2), a small molecule and functions as oxidative stress and a second messenger which contributes to cell damage or death, could directly induce inflammation in several cell lines. H2O2-induced cell damage is a commonly used model for antioxidant activity evaluation. […] Thus, the concentration of 400 µmol·L^−1 at 4 h was chosen as the model.
Compound SC2 stock solutions were prepared in DMSO. The stock solutions were diluted with FBS free DMEM to different target concentrations (DMSO concentrations ≤ 0.5% v:v). Cells (100 μL, 2 × 10^5 cells∙mL^−1) were seeded on 96-well plates and cultured for 24 h. The medium was then replaced with fresh media containing H2O2 with different concentrations (0, 100, 200, 300, 400, 500, and 600 μmol·L^−1 in FBS free DMEM) and compound SC2 (50, 40, 30, 20, 10 µmol·L^−1), which were transferred to the incubator and cultured for additional time (2, 4, and 6 h). The medium was then replaced with 100 μL of FBS free DMEM and MTT (10 μL, 5 mg·mL^−1 in PBS) and after 4 h the medium was replaced with DMSO (100 μL). A microplate reader (SpectraMaxPlus384, Molecular Devices, United States) was used to record the absorbance at 490 nm for each well of the plates. Cell viability was measured via MTT assay. Survival rate (%) = (Asample group/Acontrol group) × 100%.
Cells (100 μL, 2 × 10^5 cells·mL^−1) were seeded in 96-well plates for 24 h. Cells were treated with different groups and cell viability was measured via MTT assay. The protection rates to oxidative damage were determined and EC50 values were calculated. The protection rates to cells were calculated using the following formula: Protection rate (%) = (Apretreatment group − Amodel group)/(Acontrol group − Amodel group) × 100%.

COX2 = target: T1, COX2 (Homo sapiens, UniProt P35354); assay: Fluorescence quenching of COX2 (Stern-Volmer, double logarithm, thermodynamic parameters); assay type: binding; settings: for Kq (bimolecular quenching constant): Kq = Ksv/τ0
T1 construct: purchased Sino Biological Co. (Beijing, China)
T1 sequence (P35354 18-604): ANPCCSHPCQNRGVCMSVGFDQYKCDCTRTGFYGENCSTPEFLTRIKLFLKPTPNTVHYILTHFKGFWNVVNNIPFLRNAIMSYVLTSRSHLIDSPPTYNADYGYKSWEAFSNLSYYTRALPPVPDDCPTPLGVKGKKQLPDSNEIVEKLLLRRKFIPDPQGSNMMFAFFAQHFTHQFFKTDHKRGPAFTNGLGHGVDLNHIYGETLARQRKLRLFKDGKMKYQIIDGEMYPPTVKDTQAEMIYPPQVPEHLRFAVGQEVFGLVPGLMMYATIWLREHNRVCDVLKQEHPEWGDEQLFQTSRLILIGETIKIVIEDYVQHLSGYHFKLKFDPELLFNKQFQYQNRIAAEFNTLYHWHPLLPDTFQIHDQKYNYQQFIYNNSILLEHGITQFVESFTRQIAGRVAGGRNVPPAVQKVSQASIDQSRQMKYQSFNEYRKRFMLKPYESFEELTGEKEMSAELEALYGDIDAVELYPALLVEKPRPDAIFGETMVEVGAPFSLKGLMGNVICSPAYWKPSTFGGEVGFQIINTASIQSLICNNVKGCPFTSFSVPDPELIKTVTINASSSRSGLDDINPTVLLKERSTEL
Text: The emitted fluorescence spectra of COX2 solution (6.0 × 10^−8 mol∙L^−1) without and with an increasing concentration of compounds DB2, SC2 or YB2 (7.5 × 10^−6 mol∙L^−1 to 4.5 × 10^−5 mol∙L^−1) at different temperatures are shown in Figure 4a,b, Figure 4c,d or Figure 4e,f, respectively. […] The quenching constant Kq and Stern–Volmer constant Ksv at different temperatures are usually used to identify the quenching mechanisms, static or dynamic. The former is caused by ground-state complex formation, the latter is diffusion. For the static quenching mechanism, the quenching constant decreases with temperature increase. In this part, we calculated the Kq and Ksv values by using a universally accepted Stern–Volmer equation [38]:(1) F0/F=1+Kqτ0[Q]=1+Ksv[Q] where F0 and F are the protein fluorescence intensities in the absence and the presence of quencher (compounds DB2, SC2 or YB2), respectively. Kq = Ksv/ τ0 . τ0 is the fluorescence lifetime of the fluorophore without the quencher ([…]). [Q] is the concentration of quencher. The Stern-Volmer plots of COX2 fluorescence quenching by compounds DB2, SC2 or YB2 are presented in Figure 5a, Figure 5b or Figure 5c, respectively. According to Table 1, the Ksv and Kq values for all three systems (COX2-DB2, COX2-SC2 and COX2-YB2) decreased with increasing temperature. Therefore, we considered that the quenching was static quenching. To further verify that the system was static quenching, dynamic quenching was assumed first.
For the static quenching, we can use the double logarithm equation to obtain the binding constant (KA) and the number of binding sites per protein (n):(2) lgF0−F/F=lgKA+nlg[Q]
There are four main kinds of non-covalent forces between drugs and proteins. These are electrostatic force, hydrogen bonding, hydrophobic force and van der Waals force. The kind of interaction between compounds DB2, SC2 or YB2 and COX2 can be obtained from thermodynamic parameters, including the free energy change (ΔG), enthalpy change (ΔH) and entropy change (ΔS) of the reaction. The three thermodynamic parameters can be obtained according to the published equations [42, 44]:(3) ΔG=−RTlnK (4) lnK2/K1=ΔH(1/T1−1/T2)×1/R (5) ΔG=ΔH−TΔS
The fluorescence intensity of the system was measured with a 1.0 cm quartz cell. COX2 protein was dissolved in PBS for a final concentration of 6.0 × 10^−8 mol∙L^−1. DB2, SC2 or YB2 stock solutions were prepared in singleton at 1.5 × 10^−3 mol∙L^−1 in PBS containing 0.1% DMSO. 2.0 mL COX2 solution was separately titrated by continuing additions of 10 μL compounds DB2, SC2 or YB2 solution). After incubation at 298 K or 310 K, fluorescence quenching spectra were recorded in the region 325-450 nm at a scan rate of 1200 nm∙min^−1. The local environment of Tyr and Trp residues was quite sensitive at 280 nm, so the excitation wavelength was set at this wavelength. Typically, 280 nm is also used to measure the changes in protein tertiary structure. The slit widths of emission and excitation were both fixed at 10 nm. To observe spectra behaviors of Tyr and Trp groups of COX2, the wavelength interval between the excitation and emission wavelengths (Δλ) was set as 15 nm and 60 nm, respectively. Three-dimensional fluorescence spectroscopy was obtained for an excitation range of 200–300 nm and an emission range of 325–400 nm. Appropriate buffer solutions, determined under the same operation conditions, were used as blanks. Each spectrum was recorded three times.

Compound	EC50 (EA.hy926 cells)	protection rate compared with positive controls (fenofibrate and quereetin) (EA.hy926 cells)	also measured
CCCCc1ccc(C(=O)c2cc(O)c(O)cc2Br)cc1 [DB1]	7080 ± 92.6 nM	–	–
CCCCc1ccc(C(=O)c2cc(O)c(O)cc2Cl)cc1 [DC1]	3310 ± 242 nM	–	–
CCCCc1ccc(C(=O)c2c(Cl)cc(O)c(O)c2O)cc1 [DC2]	1550 ± 924 nM	no significant difference	–
O=c1c(O)c(-c2ccc(O)c(O)c2)oc2cc(O)cc(O)c12 [Quereetin, quercetin, reference compound]	7980 ± 1230 nM	–	–
CC(C)(C)c1ccc(C(=O)c2cc(O)c(O)cc2Br)cc1 [SB1]	12 ± 4.8 nM	no significant difference	–
CC(C)(C)c1ccc(C(=O)c2c(Br)cc(O)c(O)c2O)cc1 [SB2]	25.2 ± 12.2 nM	no significant difference	–
CC(C)(C)c1ccc(C(=O)c2cc(O)c(O)cc2Cl)cc1 [SC1]	1910 ± 521 nM	no significant difference	–
CC(C)Cc1ccc(C(=O)c2cc(O)c(O)cc2Br)cc1 [YB1]	8510 ± 957 nM	–	–
CC(C)Cc1ccc(C(=O)c2cc(O)c(O)cc2Cl)cc1 [YC1]	1910 ± 823 nM	–	–
CC(C)Cc1ccc(C(=O)c2c(Cl)cc(O)c(O)c2O)cc1 [YC2]	3850 ± 925 nM	no significant difference	–
[3-isobutyl-4-methoxy-5 -(pyrrolidine-1-carbonyl)-phenyl]-butyric acid ethyl ester [Control compound, reference compound]	–	–	KA (binding constant) (COX2; 298 K): 4436.3 ± 718.24 L/mol; Ksv (Stern-Volmer quenching constant) (COX2; 298 K): 1.71 ± 0.297 ×10^4 L∙mol^−1; n (number of binding sites per protein) (COX2; 298 K): 0.947 ± 0.116; Kq (bimolecular quenching constant) (COX2; 298 K): 1.71 ± 0.297 ×10^12 L∙mol^−1∙S^−1; KA (binding constant) (COX2; 310 K): 1417.0 ± 92.261 L/mol; Ksv (Stern-Volmer quenching constant) (COX2; 310 K): 1.05 ± 0.157 ×10^4 L∙mol^−1; n (number of binding sites per protein) (COX2; 310 K): 0.785 ± 0.0195; Kq (bimolecular quenching constant) (COX2; 310 K): 1.05 ± 0.157 ×10^12 L∙mol^−1∙S^−1
